Experimental data reported in patent publication US5478929A, “Bioconversion products of 27-hydroxy avermectin” (Merck & Co., Inc., priority 1994, dated 1995).

What was measured:
Assay type in all cases: in vivo
[1] = tested on: Trichostrongylus sigmodontis; test: Anthelmintic activity against Trichostrongylus sigmodontis (large bowel worm); settings: for Activity profile, Trichostrongulus sigmodontis: Table 4; for Anthelmintic activity, Trichostrongylus sigmodontis: Table 2; for Anthelmintic activity, Trichostrongylus sigmodontis: key: A*: highly active; M: moderately active; I: inactive
Excerpt: The anthelmintic activity of the instant compound may be determined by orally administering via the feed, a sample of the individual compound, a mixture of such compound, a concentrated extract, and the like to a mouse which had been infected 3 days earlier with a gastrointestinal parasite. At 11, 12 and 13 days after the initiation of the medication, the feces of the mouse are examined for eggs, and on the next day the mouse is sacrificed and the number of worms present in the proximal portion of the small intestine are determined. An active compound is observed when there is a significant reduction of egg and worm counts when compared to infected, unmedicated controls.

[2] = tested on: Trichostrongylus colubriformis; test: Anthelmintic activity against Trichostrongylus colubriformis; settings: Table 4
Haemonchus contortus = test: Anthelmintic activity against Haemonchus contortus; settings: for Activity profile, Haemonchus Contortus: Table 4
Lucilla larva = test: Insecticidal activity, Lucilla larva; settings: for Insecticidal activity, Lucilla larva 48 hrs: listed as 27-OH ivermectins Isomer B; for all read-outs here: key: A*: highly active; M: moderately active; I: inactive

| Compound | Activity profile, Trichostrongulus sigmodontis ([1]; 1.00 mg/kg) | Activity profile, Trichostrongulus colubriformis ([2]; 1.00 mg/kg) | Activity profile, Haemonchus Contortus (Haemonchus contortus; 1.00 mg/kg) | Activity profile, Trichostrongulus sigmodontis ([1]; 0.0625 mg/kg) | Activity profile, Trichostrongulus sigmodontis ([1]; 0.125 mg/kg) | Activity profile, Trichostrongulus sigmodontis ([1]; 0.25 mg/kg) | Activity profile, Trichostrongulus colubriformis ([2]; 0.0625 mg/kg) | Activity profile, Trichostrongulus colubriformis ([2]; 0.125 mg/kg) | Activity profile, Trichostrongulus colubriformis ([2]; 0.25 mg/kg) | Activity profile, Haemonchus Contortus (Haemonchus contortus; 0.0625 mg/kg) | Activity profile, Haemonchus Contortus (Haemonchus contortus; 0.125 mg/kg) | Activity profile, Haemonchus Contortus (Haemonchus contortus; 0.25 mg/kg) | Insecticidal activity, Lucilla larva 24 hrs (Lucilla larva; 0.5 ppm) | Insecticidal activity, Lucilla larva 24 hrs (Lucilla larva; 1 ppm) | Anthelmintic activity, Trichostrongylus sigmodontis ([1]; 0.0625 mg/kg) | Insecticidal activity, Lucilla larva 48 hrs (Lucilla larva; 0.5 ppm) | Insecticidal activity, Lucilla larva 48 hrs (Lucilla larva; 1 ppm) | Anthelmintic activity, Trichostrongylus sigmodontis ([1]; 0.125 mg/kg, listed as 27-OH ivermectins Isomer B) | Anthelmintic activity, Trichostrongylus sigmodontis ([1]; 0.25 mg/kg, listed as 27-OH ivermectins Isomer B) | Anthelmintic activity, Haemonchus contortus (Haemonchus contortus; Table 2, 0.0625 mg/kg, listed as 27-OH ivermectins Isomer B) |
| --- | --- | --- | --- | --- | --- | --- | --- | --- | --- | --- | --- | --- | --- | --- | --- | --- | --- | --- | --- | --- |
| CC1=C[C@H]2C(=O)O[C@H]3C[C@@H](C/C=C(\C)[C@@H](O)[C@@H](C)/C=C/C=C4\CO[C@H]([C@@H]1O)[C@@]42O)O[C@@]1(CC[C@H](C)[C@@H]([C@@H](C)C(C)O)O1)C3 (single isomer, unassigned) [27-OH-22,23 dihydro B1a aglycone isomer B, 27-hydroxy ivermectin aglycone] | I | I | I |  |  |  |  |  |  |  |  |  |  |  |  |  |  |  |  |  |
| CC[C@H](C)[C@H]1O[C@]2(CC[C@@H]1C)C[C@@H]1C[C@@H](C/C=C(\C)[C@@H](O[C@H]3C[C@H](OC)[C@@H](O[C@H]4C[C@H](OC)[C@@H](O)[C@H](C)O4)[C@H](C)O3)[C@@H](C)/C=C/C=C3\CO[C@@H]4[C@H](O)C(C)=C[C@@H](C(=O)O1)[C@]34O)O2 [22,23 dihydro 8 B1a, 22,23 dihydro B1a, reference compound] |  |  |  | I | A (85-100% effective) | A (85-100% effective) | A (85-100% effective) | A (85-100% effective) | A (85-100% effective) | A (85-100% effective) | A (85-100% effective) | A (85-100% effective) |  |  |  |  |  |  |  |  |
| CC1=C[C@H]2C(=O)O[C@H]3C[C@@H](C/C=C(\C)[C@@H](O)[C@@H](C)/C=C/C=C4\CO[C@H]([C@@H]1O)[C@@]42O)O[C@@]1(CC[C@H](C)[C@@H]([C@@H](C)C(C)O)O1)C3 (single isomer, unassigned) [27-OH-22,23 dihydro B1a aglycone isomer A, 27-hydroxy ivermectin aglycone] | I | I | I |  |  |  |  |  |  |  |  |  |  |  |  |  |  |  |  |  |
| CO[C@H]1C[C@H](O[C@H]2[C@H](C)O[C@@H](O[C@@H]3/C(C)=C/C[C@@H]4C[C@@H](C[C@]5(C=C[C@H](C)[C@@H]([C@@H](C)C(C)O)O5)O4)OC(=O)[C@@H]4C=C(C)[C@@H](O)[C@H]5OC/C(=C\C=C\[C@@H]3C)[C@]54O)C[C@@H]2OC)O[C@@H](C)[C@@H]1O (single isomer, unassigned) [27-OHB1a isomer B, 27-OHB1a] |  |  |  |  |  | SLA (35-60% effective) | A (85-100% effective) | A (85-100% effective) | A (85-100% effective) | A (85-100% effective) | A (85-100% effective) | A (85-100% effective) |  |  |  |  |  |  |  |  |
| CO[C@H]1C[C@H](O[C@H]2[C@H](C)O[C@@H](O[C@@H]3/C(C)=C/C[C@@H]4C[C@@H](C[C@]5(CC[C@H](C)[C@@H]([C@@H](C)C(C)O)O5)O4)OC(=O)[C@@H]4C=C(C)[C@@H](O)[C@H]5OC/C(=C\C=C\[C@@H]3C)[C@]54O)C[C@@H]2OC)O[C@@H](C)[C@@H]1O (single isomer, unassigned) [27-OH-22,23 dihydro B1a isomer A, 27-OH 22,23 dihydroavermectin B la] |  |  |  | I | A (85-100% effective) | A (85-100% effective) | A (85-100% effective) | A (85-100% effective) | A (85-100% effective) | A (85-100% effective) | A (85-100% effective) | A (85-100% effective) | I | I | I |  |  |  |  |  |
| CO[C@H]1C[C@H](O[C@H]2[C@H](C)O[C@@H](O[C@@H]3/C(C)=C/C[C@@H]4C[C@@H](C[C@]5(CC[C@H](C)[C@@H]([C@@H](C)C(C)O)O5)O4)OC(=O)[C@@H]4C=C(C)[C@@H](O)[C@H]5OC/C(=C\C=C\[C@@H]3C)[C@]54O)C[C@@H]2OC)O[C@@H](C)[C@@H]1O (single isomer, unassigned) [27-OH-22,23 dihydro B1a isomer B, 27-OH 22,23 dihydroavermectin B la] |  |  |  | I | I | I | I | A (85-100% effective) | A (85-100% effective) | MA (60-85% effective) | A (85-100% effective) | A (85-100% effective) | I | I | I | I | I | I | I | I |
| 4"-O-glucosyl, 27-OH-22,23 dihydro B 1 a isomer B [4"-O-glucosyl, 27-OH-22,23 dihydro B1a isomer B] |  |  |  | A (85-100% effective) | A (85-100% effective) | A (85-100% effective) | SLA (35-60% effective) | MA (60-85% effective) | A (85-100% effective) | I | MA (60-85% effective) | A (85-100% effective) |  |  |  |  |  |  |  |  |
| CC[C@H](C)[C@H]1O[C@]2(C=C[C@@H]1C)C[C@@H]1C[C@@H](C/C=C(\C)[C@@H](O[C@H]3C[C@H](OC)[C@@H](O[C@H]4C[C@H](OC)[C@@H](O)[C@H](C)O4)[C@H](C)O3)[C@@H](C)/C=C/C=C3\CO[C@@H]4[C@H](O)C(C)=C[C@@H](C(=O)O1)[C@]34O)O2 [B1a, avermectin B1a, reference compound] |  |  |  | SLA (35-60% effective) | A (85-100% effective) | A (85-100% effective) | A (85-100% effective) | A (85-100% effective) | A (85-100% effective) | A (85-100% effective) | A (85-100% effective) | A (85-100% effective) |  |  |  |  |  |  |  |  |
| 4"-O-glucosyl, 27-OH B1a [4"-O-glucosyl, 27-OH B1a isomer B] |  |  |  | A (85-100% effective) | A (85-100% effective) | A (85-100% effective) | I | A (85-100% effective) | A (85-100% effective) | I | A (85-100% effective) | A (85-100% effective) |  |  |  |  |  |  |  |  |
| 4"-O-glucosyl, 27-OH -22,23 dihydro B1a isomer A [4"-O-glucosyl, 27-OH-22,23 dihydro B1a isomer A] |  |  |  | A (85-100% effective) | A (85-100% effective) | A (85-100% effective) | SLA (35-60% effective) | A (85-100% effective) | A (85-100% effective) | MA (60-85% effective) | A (85-100% effective) | A (85-100% effective) |  |  |  |  |  |  |  |  |
